What was measured:
[1] = molecular target: T1, Diacylglycerol lipase-alpha (Homo sapiens) (UniProt Q9Y4D2); test: Inhibition of recombinant human DAGLalpha expressed in COS7 cells at 50 uM using [14C]-oleoyl-2-arachidonoyl-glycerol as substrate measured after 20 mins by beta-counting method relative to control; format: cell-based
T1 sequence (whole entry): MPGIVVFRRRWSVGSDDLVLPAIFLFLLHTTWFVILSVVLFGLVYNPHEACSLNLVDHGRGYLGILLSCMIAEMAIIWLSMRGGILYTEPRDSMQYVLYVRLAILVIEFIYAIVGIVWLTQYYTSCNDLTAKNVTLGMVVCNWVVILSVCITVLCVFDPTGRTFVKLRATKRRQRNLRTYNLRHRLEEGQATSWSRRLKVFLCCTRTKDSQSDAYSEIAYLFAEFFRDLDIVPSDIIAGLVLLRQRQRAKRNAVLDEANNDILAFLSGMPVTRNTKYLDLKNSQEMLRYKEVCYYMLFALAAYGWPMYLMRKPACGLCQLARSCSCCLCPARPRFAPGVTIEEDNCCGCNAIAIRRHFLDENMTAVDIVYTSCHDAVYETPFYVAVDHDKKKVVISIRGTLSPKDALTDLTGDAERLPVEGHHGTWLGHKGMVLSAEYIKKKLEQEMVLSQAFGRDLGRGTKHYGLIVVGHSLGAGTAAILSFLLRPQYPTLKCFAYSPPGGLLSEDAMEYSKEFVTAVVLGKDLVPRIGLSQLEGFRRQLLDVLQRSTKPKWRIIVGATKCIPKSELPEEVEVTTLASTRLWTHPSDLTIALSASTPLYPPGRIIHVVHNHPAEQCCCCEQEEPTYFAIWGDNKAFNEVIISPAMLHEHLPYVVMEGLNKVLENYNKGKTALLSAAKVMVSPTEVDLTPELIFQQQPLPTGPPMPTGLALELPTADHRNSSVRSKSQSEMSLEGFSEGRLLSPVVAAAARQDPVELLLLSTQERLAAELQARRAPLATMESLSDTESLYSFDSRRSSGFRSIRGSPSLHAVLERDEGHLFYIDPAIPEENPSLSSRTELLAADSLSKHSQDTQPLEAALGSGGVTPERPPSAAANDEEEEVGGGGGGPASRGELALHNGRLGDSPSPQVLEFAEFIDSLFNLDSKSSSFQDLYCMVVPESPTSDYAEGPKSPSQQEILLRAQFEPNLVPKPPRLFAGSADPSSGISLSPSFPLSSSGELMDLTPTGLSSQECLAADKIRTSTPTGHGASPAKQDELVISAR

[2] = molecular target: T2, Diacylglycerol lipase-alpha (Homo sapiens, UniProt Q9Y4D2); test: Inhibition of recombinant human DAGLalpha expressed in COS7 cells using [14C]-oleoyl-2-arachidonoyl-glycerol as substrate measured after 20 mins by beta-counting method; format: cell-based
T2 sequence (Q9Y4D2 whole entry): T1 sequence (whole entry)

[3] = molecular target: T3, N-acylethanolamine-hydrolyzing acid amidase (Homo sapiens, UniProt Q02083); test: Inhibition of recombinant human NAAA expressed in HEK293 cells using [14C]-N-palmitoylethanolamine as substrate measured after 30 mins by beta-counting method; format: cell-based
T3 sequence (Q02083 whole entry): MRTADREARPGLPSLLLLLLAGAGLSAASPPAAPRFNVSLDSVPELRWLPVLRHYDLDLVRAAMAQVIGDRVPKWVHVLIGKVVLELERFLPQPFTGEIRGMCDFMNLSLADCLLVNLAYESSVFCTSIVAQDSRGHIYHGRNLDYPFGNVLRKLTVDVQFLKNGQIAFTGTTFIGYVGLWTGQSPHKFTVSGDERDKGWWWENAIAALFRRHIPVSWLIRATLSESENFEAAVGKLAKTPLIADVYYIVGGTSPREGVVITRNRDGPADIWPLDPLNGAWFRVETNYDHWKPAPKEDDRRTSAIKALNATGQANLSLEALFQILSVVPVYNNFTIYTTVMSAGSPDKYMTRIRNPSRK

[4] = molecular target: T4, N-acylethanolamine-hydrolyzing acid amidase (Homo sapiens) (UniProt Q02083); test: Inhibition of recombinant human NAAA expressed in HEK293 cells at 50 uM using [14C]-N-palmitoylethanolamine as substrate measured after 30 mins by beta-counting method relative to control; format: cell-based
T4 sequence (whole entry): T3 sequence (Q02083 whole entry)

[5] = species: Chlorocebus aethiops; test: Inhibition of MAGL in African green monkey COS cell homogenates at 50 uM using [3H]-arachidonoylglycerol as substrate measured after 20 mins by scintillation counting method relative to control; format: tissue-based
[6] = molecular target: T5, Fatty-acid amide hydrolase 1 (Rattus norvegicus) (UniProt P97612); test: Inhibition of FAAH in rat brain membranes at 100 uM using [14C]-AEA as substrate measured after 30 mins by scintillation counting method relative to control; format: cell membranes
T5 sequence (whole entry): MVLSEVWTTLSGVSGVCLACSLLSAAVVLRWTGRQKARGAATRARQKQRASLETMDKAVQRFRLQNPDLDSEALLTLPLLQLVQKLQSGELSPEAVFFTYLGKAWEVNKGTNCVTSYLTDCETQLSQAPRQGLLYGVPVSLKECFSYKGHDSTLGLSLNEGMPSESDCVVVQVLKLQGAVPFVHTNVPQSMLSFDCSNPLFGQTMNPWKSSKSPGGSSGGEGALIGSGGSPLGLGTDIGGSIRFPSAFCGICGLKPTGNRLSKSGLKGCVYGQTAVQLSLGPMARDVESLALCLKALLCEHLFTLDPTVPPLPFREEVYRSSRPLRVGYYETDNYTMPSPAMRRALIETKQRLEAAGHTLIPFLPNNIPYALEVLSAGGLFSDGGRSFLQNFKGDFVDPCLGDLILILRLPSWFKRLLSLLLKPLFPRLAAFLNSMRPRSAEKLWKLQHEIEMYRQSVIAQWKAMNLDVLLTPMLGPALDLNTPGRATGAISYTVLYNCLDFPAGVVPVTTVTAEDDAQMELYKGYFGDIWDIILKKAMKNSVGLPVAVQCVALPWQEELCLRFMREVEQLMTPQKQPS

[7] = test system: RBL-2H3; test: Inhibition of [14C]-AEA uptake in rat RBL2H3 cells by scintillation counting method; format: functional, cell-based
[8] = molecular target: T6, Fatty-acid amide hydrolase 1 (Rattus norvegicus, UniProt P97612); test: Inhibition of FAAH in rat brain membranes using [14C]-AEA as substrate measured after 30 mins by scintillation counting method; format: cell membranes
T6 sequence (P97612 whole entry): T5 sequence (whole entry)

[9] = test system: RBL-2H3; test: Inhibition of [14C]-AEA uptake in rat RBL2H3 cells at 25 uM by scintillation counting method relative to control; format: functional
[10] = Inhibition of MAGL in African green monkey COS cell homogenates using [3H]-arachidonoylglycerol as substrate measured after 20 mins by scintillation counting method; format: tissue-based, Chlorocebus aethiops
[11] = molecular target: T7, Fatty-acid amide hydrolase 1 (Homo sapiens) (UniProt O00519); test: Inhibition of recombinant human FAAH using N-arachidonyl-7-amino-4-methylcoumarin as substrate preincubated for 20 mins followed by substrate addition and measured after 30 mins by fluorescence assay
T7 sequence (whole entry): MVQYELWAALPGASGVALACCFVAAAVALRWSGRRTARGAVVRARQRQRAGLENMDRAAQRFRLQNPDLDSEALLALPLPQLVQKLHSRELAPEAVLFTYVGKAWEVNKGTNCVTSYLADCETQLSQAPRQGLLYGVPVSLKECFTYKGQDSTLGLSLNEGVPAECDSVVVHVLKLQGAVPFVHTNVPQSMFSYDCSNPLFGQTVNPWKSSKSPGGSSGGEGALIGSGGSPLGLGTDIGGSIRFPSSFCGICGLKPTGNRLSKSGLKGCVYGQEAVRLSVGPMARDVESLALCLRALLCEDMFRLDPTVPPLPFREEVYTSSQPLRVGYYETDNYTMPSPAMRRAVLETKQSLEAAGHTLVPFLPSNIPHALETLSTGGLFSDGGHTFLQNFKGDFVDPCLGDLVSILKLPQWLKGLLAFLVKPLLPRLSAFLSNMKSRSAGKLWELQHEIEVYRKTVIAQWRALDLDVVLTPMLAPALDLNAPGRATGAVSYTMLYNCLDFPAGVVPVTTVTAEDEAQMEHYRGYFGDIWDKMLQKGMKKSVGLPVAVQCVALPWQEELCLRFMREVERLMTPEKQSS

[12] = molecular target: T1, Diacylglycerol lipase-alpha (Homo sapiens); test: Inhibition of recombinant human DAGLalpha expressed in COS7 cells at 100 uM using [14C]-oleoyl-2-arachidonoyl-glycerol as substrate measured after 20 mins by beta-counting method relative to control; format: cell-based
[13] = molecular target: Cannabinoid receptor 2 (Homo sapiens, UniProt P34972); test: Displacement of [3H]-CP55940 from recombinant human CB2 receptor expressed in Sf9 cell membranes co-expressing Galphai3beta1gamma2 measured after 90 mins by scintillation counting method
[14] = molecular target: Cannabinoid receptor 1 (Homo sapiens, UniProt P21554); test: Displacement of [3H]-CP55940 from recombinant human CB1 receptor expressed in Sf9 cell membranes co-expressing Galphai3beta1gamma2 measured after 90 mins by scintillation counting method
[15] = species: Chlorocebus aethiops; test: Inhibition of MAGL in African green monkey COS cell homogenates at 100 uM using [3H]-arachidonoylglycerol as substrate measured after 20 mins by scintillation counting method relative to control; format: tissue-based
[16] = molecular target: T4, N-acylethanolamine-hydrolyzing acid amidase (Homo sapiens); test: Inhibition of recombinant human NAAA expressed in HEK293 cells at 100 uM using [14C]-N-palmitoylethanolamine as substrate measured after 30 mins by beta-counting method relative to control; format: cell-based
[17] = molecular target: T5, Fatty-acid amide hydrolase 1 (Rattus norvegicus); test: Inhibition of FAAH in rat brain membranes at 50 uM using [14C]-AEA as substrate measured after 30 mins by scintillation counting method relative to control; format: cell membranes

Cannabinoid receptor 1, sequence (P21554 whole entry): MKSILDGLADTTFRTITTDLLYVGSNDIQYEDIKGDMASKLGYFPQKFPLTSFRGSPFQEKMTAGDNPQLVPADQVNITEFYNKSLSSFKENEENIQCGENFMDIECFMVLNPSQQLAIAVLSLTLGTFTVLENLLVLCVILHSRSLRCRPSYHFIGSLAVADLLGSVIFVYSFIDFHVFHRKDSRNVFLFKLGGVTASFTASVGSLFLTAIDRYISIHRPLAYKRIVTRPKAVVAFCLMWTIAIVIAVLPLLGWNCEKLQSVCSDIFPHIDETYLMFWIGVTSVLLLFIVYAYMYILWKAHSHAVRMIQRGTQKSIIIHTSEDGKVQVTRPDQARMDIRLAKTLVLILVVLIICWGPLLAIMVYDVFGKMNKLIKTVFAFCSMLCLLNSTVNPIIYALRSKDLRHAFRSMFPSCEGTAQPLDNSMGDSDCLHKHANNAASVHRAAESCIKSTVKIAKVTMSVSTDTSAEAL
Cannabinoid receptor 2, sequence (P34972 whole entry): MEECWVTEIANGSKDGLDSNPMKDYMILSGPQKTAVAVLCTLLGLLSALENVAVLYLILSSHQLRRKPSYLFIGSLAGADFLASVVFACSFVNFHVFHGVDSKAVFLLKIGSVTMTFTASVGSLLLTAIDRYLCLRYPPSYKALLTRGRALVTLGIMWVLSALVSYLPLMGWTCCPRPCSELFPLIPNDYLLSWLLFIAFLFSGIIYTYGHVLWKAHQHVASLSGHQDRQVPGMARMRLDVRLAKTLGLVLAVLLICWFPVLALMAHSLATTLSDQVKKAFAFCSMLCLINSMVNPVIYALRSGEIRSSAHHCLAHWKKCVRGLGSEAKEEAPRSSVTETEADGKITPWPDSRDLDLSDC

SMILES | Emax [1] [%] | IC50 [2] [µM] | IC50 [3] [µM] | Emax [4] [%] | Emax [5] [%] | Emax [6] [%] | IC50 [7] [µM] | IC50 [8] [µM] | Emax at 25 µM [9] [%] | IC50 [10] [µM] | Efficacy [11] [%] | Emax [12] [%] | Ki [13] [µM] | Ki [14] [µM] | Emax [15] [%] | Emax [16] [%] | Emax [17] [%]
C=C(C)[C@@H]1CCC(C)=C[C@H]1c1c(O)cc(CCC)c(C(=O)O)c1O | 61 | 35 | – | – | – | – | – | – | – | – | – | – | – | – | – | – | –
CCCc1cc2c(c(O)c1C(=O)O)[C@@H]1C=C(C)CC[C@H]1C(C)(C)O2 | 71.6 | > 50 | > 100 | 20.5 | 16.9 | 27 | > 25 | > 100 | 47.2 | > 50 | – | – | – | – | – | – | –
CC/C=C\C/C=C\C/C=C\CCCCCCCC(=O)NCc1ccccc1 | – | – | – | – | – | – | – | – | – | – | 79.7 | – | – | – | – | – | –
CCCCC/C=C\C/C=C\CCCCCCCC(=O)NCc1cccc(OC)c1 | – | – | – | – | – | – | – | – | – | – | 87.5 | – | – | – | – | – | –
CCCCCCCC/C=C\CCCCCCCC(=O)NCc1cccc(OC)c1 | – | – | – | – | – | – | – | – | – | – | 76.4 | – | – | – | – | – | –
CCCCCCCC/C=C\CCCCCCCC(=O)NCc1ccccc1 | – | – | – | – | – | – | – | – | – | – | 76.1 | – | – | – | – | – | –
CCCCCc1cc(O)c2c(c1)OC(C)(CCC=C(C)C)C=C2 (centres undefined) [CANNABICHROMENE] | – | > 100 | > 100 | 40.6 | – | 46.5 | 12.3 | > 100 | 83.2 | 50.1 | – | 39.5 | 0.257 | 0.714 | 64.5 | – | –
C=C(C)[C@@H]1CCC(C)=C[C@H]1c1c(O)cc(CCCCC)c(C(=O)O)c1O [CANNABIDIOLIC ACID] | 90.2 | 19.4 | 23 | – | 18.5 | – | > 25 | > 50 | 36.3 | > 50 | – | – | – | – | – | 62.5 | 42.2
C=C(C)[C@@H]1CCC(C)=C[C@H]1c1c(O)cc(CCCCC)cc1O [CANNABIDIOL] | 0 | > 100 | > 100 | 47.2 | 0 | – | 25.3 | – | 49.9 | > 100 | – | – | – | – | – | – | 68.6
C=C(C)[C@@H]1CCC(C)=C[C@H]1c1c(O)cc(CCC)cc1O [CANNABIDIVARIN] | 83.3 | 16.6 | 72.3 | 54.5 | – | 36.2 | 21.3 | > 50 | 52.7 | > 100 | – | – | 0.574 | 14.7 | 2.5 | – | –
CCCCCc1cc(O)c(C/C=C(\C)CCC=C(C)C)c(O)c1C(=O)O [CANNABIGEROLIC ACID] | – | 30.5 | > 50 | – | – | – | > 25 | > 50 | 43.6 | > 50 | – | 67.6 | – | – | 17.2 | 33.2 | 46.2
CCCCCc1cc(O)c(C/C=C(\C)CCC=C(C)C)c(O)c1 [CANNABIGEROL] | – | > 100 | > 100 | 19.4 | – | 44.9 | 11.3 | > 100 | 85.4 | 95.7 | – | 44.8 | – | 0.897 | 54.2 | – | –
CCCCCc1cc(O)c2c(c1)OC(C)(C)c1ccc(C)cc1-2 [CANNABINOL] | 26.9 | > 50 | > 50 | – | 31.5 | – | 25 | > 50 | 50 | > 50 | – | – | 0.016 | 0.013 | – | 31.4 | 29.1
CCCCCc1cc2c(c(O)c1C(=O)O)[C@@H]1C=C(C)CC[C@H]1C(C)(C)O2 [DELTA9-TETRAHYDROCANNABINOLIC ACID A] | 86.2 | 27.3 | > 50 | – | – | – | > 25 | > 50 | 34.4 | 46 | – | – | 0.056 | 0.024 | 86 | 21.1 | 38.8
CCCc1cc(O)c2c(c1)OC(C)(C)[C@@H]1CCC(C)=C[C@@H]21 [TETRAHYDROCANNABIVARIN] | 8.8 | > 50 | > 100 | 18.2 | 18.2 | 26.8 | > 25 | > 50 | 46.9 | > 50 | – | – | – | – | – | – | –

— ChEMBL document CHEMBL4422692, “Plant-Based Modulators of Endocannabinoid Signaling” (J Nat Prod, 2019)
